Experiment: Evaluation of solubility in organic solvents (visual observation of complete dissolution)
Assay type: physicochemical
Method: [Evaluation of Solubility]
The evaluation of the solubility of the synthesized compound was conducted by the following method.
About 2-3 mg of the compound was precisely weighed, and each solvent was added to the compound such that a predetermined concentration of the solute (0.5 wt %, 0.3 wt %, 0.2 wt %, 0.1 wt %, 0.05 wt %, or 0.03 wt %) was reached. The resultant mixture was stirred for 30 minutes at a predetermined temperature, and then it was evaluated by visual appearance observation whether or not the solute (synthesized compound) was completely dissolved in the solvent, which was the result of the evaluation of the solubility. As the solvent, chloroform (boiling point 61° C.), toluene (boiling point 111° C.), xylene (boiling point 144° C.), mesitylene (boiling point 165° C.), chlorobenzene (boiling point 130° C.), para-chlorotoluene (boiling point 162° C.), and ortho-dichlorobenzene (boiling point 181° C.) were used.

[1] = chloroform, 25° C. (room temperature)

4,8-bis[5-(4-cyano-3-(2-methylhexyl)phenyl)thiophene-2-yl]benzo[1,2-c:4,5-c′]bis[1,2,5]thiadiazole [Compound (C29)]
solubility (solute concentration completely dissolved) (1-methylnaphthalene, 60° C.): ≥ 0.3 wt %
solubility (solute concentration completely dissolved) (chloroform, 60° C.): ≥ 0.1 wt %

FC(F)(F)Oc1cccc(-c2ccc(-c3c4c(c(-c5ccc(-c6cccc(OC(F)(F)F)c6)s5)c5nsnc35)N=S=N4)s2)c1 [Compound (C1), 4,8-bis[5-(3-(trifluoromethoxy)phenyl)thiophene-2-yl]benzo[1,2-c:4,5-c′]bis[1,2,5]thiadiazole]
solubility (solute concentration completely dissolved) (mesitylene, 80° C.): ≥ 0.1 wt %
solubility (solute concentration completely dissolved) (mesitylene, 130° C.): ≥ 0.3 wt %
solubility (solute concentration completely dissolved) (toluene, 100° C.): ≥ 0.1 wt %

FC(F)(F)c1cccc(-c2ccc(-c3c4c(c(-c5ccc(-c6cccc(C(F)(F)F)c6)s5)c5nsnc35)N=S=N4)s2)c1 [Compound (C2), 4,8-bis[5-(3-(trifluoromethyl)phenyl)thiophene-2-yl]benzo[1,2-c:4,5-c′]bis[1,2,5]thiadiazole]
solubility (solute concentration completely dissolved) (chlorobenzene, 80° C.): ≥ 0.1 wt %
solubility (solute concentration completely dissolved) (chlorobenzene, 100° C.): ≥ 0.3 wt %
solubility (solute concentration completely dissolved) (mesitylene, 25° C.): ≥ 0.03 wt %
solubility (solute concentration completely dissolved) (mesitylene, 80° C.): ≥ 0.1 wt %
solubility (solute concentration completely dissolved) (ortho-dichlorobenzene, 80° C.): ≥ 0.1 wt %
solubility (solute concentration completely dissolved) (ortho-dichlorobenzene, 100° C.): ≥ 0.5 wt %
solubility (solute concentration completely dissolved) (toluene, 25° C.): ≥ 0.03 wt %
solubility (solute concentration completely dissolved) (toluene, 100° C.): ≥ 0.1 wt %

FC(F)(F)c1cc(-c2ccc(-c3c4c(c(-c5ccc(-c6cc(C(F)(F)F)cc(C(F)(F)F)c6)s5)c5nsnc35)N=S=N4)s2)cc(C(F)(F)F)c1 [Compound (C3), 4,8-bis[5-(3,5-bis(trifluoromethyl)phenyl)thiophene-2-yl]benzo[1,2-c:4,5-c′]bis[1,2,5]thiadiazole]
solubility (solute concentration completely dissolved) (chlorobenzene, 130° C.): ≥ 0.1 wt %
solubility (solute concentration completely dissolved) (mesitylene, 130° C.): ≥ 0.1 wt %
solubility (solute concentration completely dissolved) (ortho-dichlorobenzene, 100° C.): ≥ 0.1 wt %

CCCCCCCCCCC(F)(F)c1cccc(-c2ccc(-c3c4c(c(-c5ccc(-c6cccc(C(F)(F)CCCCCCCCCC)c6)s5)c5nsnc35)N=S=N4)s2)c1 [Compound (C4), 4,8-bis[5-(3-(1,1-difluoroundecyl)phenyl)thiophene-2-yl]benzo[1,2-c:4,5-c′]bis[1,2,5]thiadiazole]
solubility (solute concentration completely dissolved) (chlorobenzene, 25° C.): ≥ 0.03 wt %
solubility (solute concentration completely dissolved) (mesitylene, 25° C.): ≥ 0.03 wt %
solubility (solute concentration completely dissolved) (mesitylene, 60° C.): ≥ 0.1 wt %
solubility (solute concentration completely dissolved) (mesitylene, 100° C.): ≥ 0.5 wt %
solubility (solute concentration completely dissolved) (ortho-dichlorobenzene, 25° C.): ≥ 0.03 wt %
solubility (solute concentration completely dissolved) (toluene, 25° C.): ≥ 0.03 wt %
solubility (solute concentration completely dissolved) (toluene, 60° C.): ≥ 0.1 wt %
solubility (solute concentration completely dissolved) (toluene, 100° C.): ≥ 0.5 wt %

FC(F)(F)Sc1cccc(-c2ccc(-c3c4c(c(-c5ccc(-c6cccc(SC(F)(F)F)c6)s5)c5nsnc35)N=S=N4)s2)c1 [Compound (C6), 4,8-bis[5-(3-((trifluoromethyl)thio)phenyl)thiophene-2-yl]benzo[1,2-c:4,5-c′]bis[1,2,5]thiadiazole]
solubility (solute concentration completely dissolved) (chlorobenzene, 80° C.): ≥ 0.1 wt %
solubility (solute concentration completely dissolved) (chlorobenzene, 130° C.): ≥ 0.5 wt %
solubility (solute concentration completely dissolved) (mesitylene, 80° C.): ≥ 0.1 wt %
solubility (solute concentration completely dissolved) (mesitylene, 130° C.): ≥ 0.3 wt %
solubility (solute concentration completely dissolved) (ortho-dichlorobenzene, 80° C.): ≥ 0.1 wt %
solubility (solute concentration completely dissolved) (ortho-dichlorobenzene, 130° C.): ≥ 0.5 wt %
solubility (solute concentration completely dissolved) (toluene, 80° C.): ≥ 0.1 wt %

CCCCCCc1ccc(-c2ccc(-c3c4c(c(-c5ccc(-c6ccc(CCCCCC)c(C#N)c6)s5)c5nsnc35)N=S=N4)s2)cc1C#N [Compound (C7), 4,8-bis[5-(3-cyano-4-hexylphenyl)thiophene-2-yl]benzo[1,2-c:4,5-c′]bis[1,2,5]thiadiazole]
solubility (solute concentration completely dissolved) (chlorobenzene, 25° C.): ≥ 0.1 wt %
solubility (solute concentration completely dissolved) (chlorobenzene, 60° C.): ≥ 0.5 wt %
solubility (solute concentration completely dissolved) (mesitylene, 60° C.): ≥ 0.1 wt %
solubility (solute concentration completely dissolved) (mesitylene, 80° C.): ≥ 0.5 wt %
solubility (solute concentration completely dissolved) (toluene, 60° C.): ≥ 0.1 wt %
solubility (solute concentration completely dissolved) (toluene, 100° C.): ≥ 0.5 wt %

CCCCCCc1cc(-c2ccc(-c3c4c(c(-c5ccc(-c6ccc(C#N)c(CCCCCC)c6)s5)c5nsnc35)N=S=N4)s2)ccc1C#N [Compound (C8), 4,8-bis[5-(4-cyano-3-hexylphenyl)thiophene-2-yl]benzo[1,2-c:4,5-c′]bis[1,2,5]thiadiazole]
solubility (solute concentration completely dissolved) (chlorobenzene, 25° C.): ≥ 0.03 wt %
solubility (solute concentration completely dissolved) (chloroform, 60° C.): ≥ 0.05 wt %
solubility (solute concentration completely dissolved) (chloroform, 80° C.): ≥ 0.2 wt %
solubility (solute concentration completely dissolved) (ortho-dichlorobenzene, 25° C.): ≥ 0.03 wt %
solubility (solute concentration completely dissolved) (para-chlorotoluene, 100° C.): ≥ 0.3 wt %

CCCCCCc1ccc(-c2ccc(-c3c4c(c(-c5ccc(-c6ccc(CCCCCC)c(C(F)(F)F)c6)s5)c5nsnc35)N=S=N4)s2)cc1C(F)(F)F [Compound (C9), 4,8-bis[5-(4-hexyl-3-(trifluoromethyl)phenyl)thiophene-2-yl]benzo[1,2-c:4,5-c′]bis[1,2,5]thiadiazole]
solubility (solute concentration completely dissolved) (chlorobenzene, 25° C.): ≥ 0.03 wt %
solubility (solute concentration completely dissolved) (mesitylene, 25° C.): ≥ 0.03 wt %
solubility (solute concentration completely dissolved) (mesitylene, 60° C.): ≥ 0.1 wt %
solubility (solute concentration completely dissolved) (mesitylene, 80° C.): ≥ 0.5 wt %
solubility (solute concentration completely dissolved) (ortho-dichlorobenzene, 25° C.): ≥ 0.03 wt %
solubility (solute concentration completely dissolved) (toluene, 25° C.): ≥ 0.03 wt %
solubility (solute concentration completely dissolved) (toluene, 60° C.): ≥ 0.1 wt %
solubility (solute concentration completely dissolved) (toluene, 80° C.): ≥ 0.5 wt %

CCCCCCc1cc(-c2ccc(-c3c4c(c(-c5ccc(-c6ccc(C(F)(F)F)c(CCCCCC)c6)s5)c5nsnc35)N=S=N4)s2)ccc1C(F)(F)F [Compound (C10), 4,8-bis[5-(3-hexyl-4-(trifluoromethyl)phenyl)thiophene-2-yl]benzo[1,2-c:4,5-c′]bis[1,2,5]thiadiazole]
solubility (solute concentration completely dissolved) (chlorobenzene, 25° C.): ≥ 0.03 wt %
solubility (solute concentration completely dissolved) (chlorobenzene, 60° C.): ≥ 0.1 wt %
solubility (solute concentration completely dissolved) (chlorobenzene, 80° C.): ≥ 0.3 wt %
solubility (solute concentration completely dissolved) (mesitylene, 25° C.): ≥ 0.03 wt %
solubility (solute concentration completely dissolved) (ortho-dichlorobenzene, 25° C.): ≥ 0.03 wt %
solubility (solute concentration completely dissolved) (ortho-dichlorobenzene, 60° C.): ≥ 0.1 wt %
solubility (solute concentration completely dissolved) (ortho-dichlorobenzene, 100° C.): ≥ 0.5 wt %
solubility (solute concentration completely dissolved) (toluene, 25° C.): ≥ 0.03 wt %

CCCCCCc1ccc(-c2ccc(-c3c4c(c(-c5ccc(-c6ccc(CCCCCC)c(OC(F)(F)F)c6)s5)c5nsnc35)N=S=N4)s2)cc1OC(F)(F)F [Compound (C11), 4,8-bis[5-(4-hexyl-3-(trifluoromethoxy)phenyl)thiophene-2-yl]benzo[1,2-c:4,5-c′]bis[1,2,5]thiadiazole]
solubility (solute concentration completely dissolved) (chlorobenzene, 60° C.): ≥ 0.1 wt %
solubility (solute concentration completely dissolved) (chlorobenzene, 80° C.): ≥ 0.5 wt %
solubility (solute concentration completely dissolved) (mesitylene, 80° C.): ≥ 0.1 wt %
solubility (solute concentration completely dissolved) (mesitylene, 100° C.): ≥ 0.5 wt %
solubility (solute concentration completely dissolved) (ortho-dichlorobenzene, 60° C.): ≥ 0.1 wt %
solubility (solute concentration completely dissolved) (ortho-dichlorobenzene, 80° C.): ≥ 0.5 wt %
solubility (solute concentration completely dissolved) (toluene, 60° C.): ≥ 0.1 wt %
solubility (solute concentration completely dissolved) (toluene, 80° C.): ≥ 0.5 wt %

CCCCCCc1cc(-c2ccc(-c3c4c(c(-c5ccc(-c6ccc(OC(F)(F)F)c(CCCCCC)c6)s5)c5nsnc35)N=S=N4)s2)ccc1OC(F)(F)F [Compound (C12)]
solubility (solute concentration completely dissolved) (chlorobenzene, 60° C.): ≥ 0.1 wt %
solubility (solute concentration completely dissolved) (chlorobenzene, 80° C.): ≥ 0.5 wt %
solubility (solute concentration completely dissolved) (mesitylene, 80° C.): ≥ 0.1 wt %
solubility (solute concentration completely dissolved) (mesitylene, 130° C.): ≥ 0.5 wt %
solubility (solute concentration completely dissolved) (ortho-dichlorobenzene, 60° C.): ≥ 0.1 wt %
solubility (solute concentration completely dissolved) (ortho-dichlorobenzene, 80° C.): ≥ 0.5 wt %

CCCCCCCc1cc(-c2ccc(-c3c4c(c(-c5ccc(-c6ccc(C#N)c(CCCCCCC)c6)s5)c5nsnc35)N=S=N4)s2)ccc1C#N [Compound (C13), 4,8-bis[5-(4-cyano-3-heptylphenyl)thiophene-2-yl]benzo[1,2-c:4,5-c′]bis[1,2,5]thiadiazole]
solubility (solute concentration completely dissolved) (chlorobenzene, 80° C.): ≥ 0.3 wt %
solubility (solute concentration completely dissolved) [1]: ≥ 0.2 wt %
solubility (solute concentration completely dissolved) (ortho-dichlorobenzene, 80° C.): ≥ 0.3 wt %
solubility (solute concentration completely dissolved) (para-chlorotoluene, 80° C.): ≥ 0.3 wt %

CCCCCCCCc1cc(-c2ccc(-c3c4c(c(-c5ccc(-c6ccc(C#N)c(CCCCCCCC)c6)s5)c5nsnc35)N=S=N4)s2)ccc1C#N [Compound (C14), 4,8-bis[5-(4-cyano-3-octylphenyl)thiophene-2-yl]benzo[1,2-c:4,5-c′]bis[1,2,5]thiadiazole]
solubility (solute concentration completely dissolved) (chlorobenzene, 80° C.): ≥ 0.3 wt %
solubility (solute concentration completely dissolved) [1]: ≥ 0.1 wt %
solubility (solute concentration completely dissolved) (chloroform, 60° C.): ≥ 0.2 wt %
solubility (solute concentration completely dissolved) (ortho-dichlorobenzene, 60° C.): ≥ 0.3 wt %
solubility (solute concentration completely dissolved) (para-chlorotoluene, 100° C.): ≥ 0.3 wt %

CCCCCCCCCc1cc(-c2ccc(-c3c4c(c(-c5ccc(-c6ccc(C#N)c(CCCCCCCCC)c6)s5)c5nsnc35)N=S=N4)s2)ccc1C#N [Compound (C15), 4,8-bis[5-(4-cyano-3-nonylphenyl)thiophene-2-yl]benzo[1,2-c:4,5-c′]bis[1,2,5]thiadiazole]
solubility (solute concentration completely dissolved) (chlorobenzene, 60° C.): ≥ 0.3 wt %
solubility (solute concentration completely dissolved) [1]: ≥ 0.1 wt %
solubility (solute concentration completely dissolved) (chloroform, 60° C.): ≥ 0.2 wt %
solubility (solute concentration completely dissolved) (ortho-dichlorobenzene, 60° C.): ≥ 0.3 wt %
solubility (solute concentration completely dissolved) (para-chlorotoluene, 80° C.): ≥ 0.3 wt %
